Reference: the NIST ThermoML archive (doi:10.1016/j.jct.2015.06.005)
Numbers after ± are expanded uncertainties.

Legend:
[1] = refractive index (Na D-line) (dimensionless); conditions: 100 kPa, Liquid, Standard Abbe refractometry
[2] = 100 kPa, Liquid; for speed of sound: Frequency=3 MHz, Sing-around technique in a fixed-path interferometer; for mass density: Vibrating tube method
[3] = refractive index (Na D-line) (dimensionless); xn = mol fraction of the nth substance listed; conditions: 100 kPa, Liquid, Standard Abbe refractometry, x1 = 1
[4] = xn = mol fraction of the nth substance listed; conditions: 100 kPa, Liquid, x1 = 1; for speed of sound: Frequency=3 MHz, Sing-around technique in a fixed-path interferometer; for mass density: Vibrating tube method

CCCCCCCCN1CCCC1=O [N-octyl-2-pyrrolidone]
refractive index ([1]; 298.15 K): 1.46346 ± 0.00086
refractive index ([1]; 303.15 K): 1.46152 ± 0.00086
refractive index ([1]; 308.15 K): 1.45955 ± 0.00086
refractive index ([1]; 313.15 K): 1.45761 ± 0.00086
refractive index ([1]; 318.15 K): 1.45564 ± 0.00086
refractive index ([1]; 323.15 K): 1.45367 ± 0.00086
speed of sound ([2]; 298.15 K): 1450.2 ± 6.1 m/s
mass density ([2]; 298.15 K): 918.45 ± 1 kg/m3
speed of sound ([2]; 303.15 K): 1432.6 ± 6.1 m/s
mass density ([2]; 303.15 K): 914.8 ± 1 kg/m3
speed of sound ([2]; 308.15 K): 1415.3 ± 6.1 m/s
mass density ([2]; 308.15 K): 911.14 ± 1 kg/m3
speed of sound ([2]; 313.15 K): 1398 ± 6.1 m/s
mass density ([2]; 313.15 K): 907.49 ± 1 kg/m3
speed of sound ([2]; 318.15 K): 1380.9 ± 6.1 m/s
mass density ([2]; 318.15 K): 903.83 ± 1 kg/m3
speed of sound ([2]; 323.15 K): 1364 ± 6.1 m/s
mass density ([2]; 323.15 K): 900.17 ± 1 kg/m3

CCCCn1cc[n+](C)c1.F[B-](F)(F)F [1-butyl-3-methylimidazolium tetrafluoroborate] + CCCCCCCCN1CCCC1=O
refractive index ([3]; 298.15 K): 1.42058 ± 0.00087
refractive index ([3]; 303.15 K): 1.41913 ± 0.00087
refractive index ([3]; 308.15 K): 1.41764 ± 0.00087
refractive index ([3]; 313.15 K): 1.41621 ± 0.00087
refractive index ([3]; 318.15 K): 1.41472 ± 0.00087
refractive index ([3]; 323.15 K): 1.4133 ± 0.00087
speed of sound ([4]; 298.15 K): 1565.1 ± 6.1 m/s
mass density ([4]; 298.15 K): 1198.78 ± 1.1 kg/m3
speed of sound ([4]; 303.15 K): 1553.2 ± 6.1 m/s
mass density ([4]; 303.15 K): 1195.18 ± 1.1 kg/m3
speed of sound ([4]; 308.15 K): 1541.3 ± 6.1 m/s
mass density ([4]; 308.15 K): 1191.6 ± 1.1 kg/m3
speed of sound ([4]; 313.15 K): 1529.7 ± 6.1 m/s
mass density ([4]; 313.15 K): 1188.04 ± 1.1 kg/m3
speed of sound ([4]; 318.15 K): 1518.2 ± 6.1 m/s
mass density ([4]; 318.15 K): 1184.5 ± 1.1 kg/m3
speed of sound ([4]; 323.15 K): 1506.8 ± 6.1 m/s
mass density ([4]; 323.15 K): 1180.98 ± 1.1 kg/m3
